For one test, the target named is T1, NTCP (Homo sapiens, UniProt Q14973).
T1 sequence (Q14973 1-349): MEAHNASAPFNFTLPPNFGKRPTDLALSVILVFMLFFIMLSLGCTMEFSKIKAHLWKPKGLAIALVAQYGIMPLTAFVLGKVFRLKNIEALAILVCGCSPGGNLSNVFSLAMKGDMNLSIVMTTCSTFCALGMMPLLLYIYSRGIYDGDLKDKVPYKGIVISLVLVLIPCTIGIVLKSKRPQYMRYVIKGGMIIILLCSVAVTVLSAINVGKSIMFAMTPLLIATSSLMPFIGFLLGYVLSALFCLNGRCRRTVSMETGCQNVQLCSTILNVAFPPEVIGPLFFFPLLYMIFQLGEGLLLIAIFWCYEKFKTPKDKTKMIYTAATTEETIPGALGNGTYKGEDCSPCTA
The test can be described thus: [3H]-TCA uptake assay (NTCP inhibition). Format: cell-based. To be noted: IC50, given as a range, marked * (asterisk not explained). The procedure, abridged: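 Read-out is liquid scintillation counting of Triton X-100 lysates after 15 min, 37° C uptake of 1 μM [3H]-taurocholate in Na+ Ringer's buffer (145 mM Na). Beforehand, PTH and HepG2-NTCP cells had 24 h in PMM for NTCP induction and 2 h of compound or DMSO treatment.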
By IC50 is commonly meant the concentration that gives 50% inhibition. Low readings indicate greater potency in that assay, high ones weaker potency in that assay. Turning to `CCC1NC(=O)C(C2OC(SCc3ccc(OCCN(C)C)cc3)CC2C)N(C)C(=O)C(C(C)C)N(C)C(=O)C(CC(C)C)N(C)C(=O)C(CC(C)C)N(C)C(=O)C(C)NC(=O)C(C)NC(=O)C(CC(C)C)N(C)C(=O)C(C(C)C)NC(=O)C(CC(C)C)N(C)C(=O)CN(C)C1=O` (centres unmarked) [Compound 87A-s], the IC50 lay within 1000 to 100000 nM.
On the same count and under the same terms, the figure for `CCC1NC(=O)C(C2OC(Oc3ccc(Cl)c(OCC4CCOCC4)c3)CC2C)N(C)C(=O)C(C(C)C)N(C)C(=O)C(CC(C)C)N(C)C(=O)C(CC(C)C)N(C)C(=O)C(C)NC(=O)C(C)NC(=O)C(CC(C)C)N(C)C(=O)C(C(C)C)NC(=O)C(CC(C)C)N(C)C(=O)CN(C)C1=O` (centres unmarked) [Compound 43A-o] is 1000 to 100000 nM; for `CCOc1ccc(OC2CC(C)C(C3C(=O)NC(CC)C(=O)N(C)CC(=O)N(C)C(CC(C)C)C(=O)NC(C(C)C)C(=O)N(C)C(CC(C)C)C(=O)NC(C)C(=O)NC(C)C(=O)N(C)C(CC(C)C)C(=O)N(C)C(CC(C)C)C(=O)N(C)C(C(C)C)C(=O)N3C)O2)cc1` (centres unmarked) [Compound 27A-o] it is 1000 to 100000 nM; for `CCC1NC(=O)C(C2OC(Oc3ccc(N4CCN(C)CC4)cc3)CC2C)N(C)C(=O)C(C(C)C)N(C)C(=O)C(CC(C)C)N(C)C(=O)C(CC(C)C)N(C)C(=O)C(C)NC(=O)C(C)NC(=O)C(CC(C)C)N(C)C(=O)C(C(C)C)NC(=O)C(CC(C)C)N(C)C(=O)CN(C)C1=O` (centres unmarked) [Compound 6A-o] it is 1000 to 100000 nM.
As for `CCC1NC(=O)C(C2OC(Oc3cccc(OCC4CCOCC4)c3)CC2C)N(C)C(=O)C(C(C)C)N(C)C(=O)C(CC(C)C)N(C)C(=O)C(CC(C)C)N(C)C(=O)C(C)NC(=O)C(C)NC(=O)C(CC(C)C)N(C)C(=O)C(C(C)C)NC(=O)C(CC(C)C)N(C)C(=O)CN(C)C1=O` (centres unmarked) [Compound 33A-o], the IC50 lay within 1000 to 100000 nM.
Still for that read-out and setting: the figure for `CCC1NC(=O)C(C2OC(SCc3ccc(Cl)c(Cl)c3)CC2C)N(C)C(=O)C(C(C)C)N(C)C(=O)C(CC(C)C)N(C)C(=O)C(CC(C)C)N(C)C(=O)C(C)NC(=O)C(C)NC(=O)C(CC(C)C)N(C)C(=O)C(C(C)C)NC(=O)C(CC(C)C)N(C)C(=O)CN(C)C1=O` (centres unmarked) [Compound 94A-s] is 1000 to 100000 nM; for `CCC1NC(=O)C(C2OC(SCc3ccc(N4CCOCC4)cc3)CC2C)N(C)C(=O)C(C(C)C)N(C)C(=O)C(CC(C)C)N(C)C(=O)C(CC(C)C)N(C)C(=O)C(C)NC(=O)C(C)NC(=O)C(CC(C)C)N(C)C(=O)C(C(C)C)NC(=O)C(CC(C)C)N(C)C(=O)CN(C)C1=O` (centres unmarked) [Compound 99A-s] it is 1000 to 100000 nM; for `CCC1NC(=O)C(C2OC(SCc3ccccc3Cl)CC2C)N(C)C(=O)C(C(C)C)N(C)C(=O)C(CC(C)C)N(C)C(=O)C(CC(C)C)N(C)C(=O)C(C)NC(=O)C(C)NC(=O)C(CC(C)C)N(C)C(=O)C(C(C)C)NC(=O)C(CC(C)C)N(C)C(=O)CN(C)C1=O` (centres unmarked) [Compound 84A-s] it is 1000 to 100000 nM.
Turning to `CCC1NC(=O)C(C2OC(SCc3cccc(OC)c3)CC2C)N(C)C(=O)C(C(C)C)N(C)C(=O)C(CC(C)C)N(C)C(=O)C(CC(C)C)N(C)C(=O)C(C)NC(=O)C(C)NC(=O)C(CC(C)C)N(C)C(=O)C(C(C)C)NC(=O)C(CC(C)C)N(C)C(=O)CN(C)C1=O` (centres unmarked) [Compound 81A-s], the IC50 fell in the range of 1000 to 100000 nM.
`CCC1NC(=O)C(C2OC(Oc3ccc(C4CCCCC4)cc3)CC2C)N(C)C(=O)C(C(C)C)N(C)C(=O)C(CC(C)C)N(C)C(=O)C(CC(C)C)N(C)C(=O)C(C)NC(=O)C(C)NC(=O)C(CC(C)C)N(C)C(=O)C(C(C)C)NC(=O)C(CC(C)C)N(C)C(=O)CN(C)C1=O` (centres unmarked) [Compound 9A-o] gave an IC50 of 1000 to 100000 nM.
Consider `CCC1NC(=O)C(C2OC(Oc3cc(Cl)cc(OC)c3)CC2C)N(C)C(=O)C(C(C)C)N(C)C(=O)C(CC(C)C)N(C)C(=O)C(CC(C)C)N(C)C(=O)C(C)NC(=O)C(C)NC(=O)C(CC(C)C)N(C)C(=O)C(C(C)C)NC(=O)C(CC(C)C)N(C)C(=O)CN(C)C1=O` (centres unmarked) [Compound 59A-o], for which the IC50 lay within 1000 to 100000 nM.
Compound `CCC1NC(=O)C(C2OC(Oc3cccc(OCc4ccncc4)c3)CC2C)N(C)C(=O)C(C(C)C)N(C)C(=O)C(CC(C)C)N(C)C(=O)C(CC(C)C)N(C)C(=O)C(C)NC(=O)C(C)NC(=O)C(CC(C)C)N(C)C(=O)C(C(C)C)NC(=O)C(CC(C)C)N(C)C(=O)CN(C)C1=O` (centres unmarked) [Compound 54A-o] came in with an IC50 of 1000 to 100000 nM.

The same test, now with this note: IC50, given as a range; assay not given.
For `CCC1NC(=O)C(C2OC(Sc3c(OC)cccc3OC)CC2C)N(C)C(=O)C(C(C)C)N(C)C(=O)C(CC(C)C)N(C)C(=O)C(CC(C)C)N(C)C(=O)C(C)NC(=O)C(C)NC(=O)C(CC(C)C)N(C)C(=O)C(C(C)C)NC(=O)C(CC(C)C)N(C)C(=O)CN(C)C1=O` [Compound 36A, [2-((2R,3R)-5-(2,6-dimethoxyphenylthio)-3-methyltetrahydrofuran-2-yl)-2-(methylamino)acetic acid]^1-cyclosporin A], the 50% inhibitory concentration (IC50) lay in the range of 1000 to 10000 nM.

Staying with this test, now noted: given as a range, marked * (asterisk not explained).
As to `CCC1NC(=O)C(C2OC(Oc3cccc(OCc4ccc(CN(C)C)cc4)c3)CC2C)N(C)C(=O)C(C(C)C)N(C)C(=O)C(CC(C)C)N(C)C(=O)C(CC(C)C)N(C)C(=O)C(C)NC(=O)C(C)NC(=O)C(CC(C)C)N(C)C(=O)C(C(C)C)NC(=O)C(CC(C)C)N(C)C(=O)CN(C)C1=O` (centres unmarked) [Compound 13A-o], the IC50 lay within 1000 to 100000 nM.
Same read-out and setting: the figure for `CCC1NC(=O)C(C2OC(Oc3cc(Cl)cc(OCc4ccc(F)cc4)c3)CC2C)N(C)C(=O)C(C(C)C)N(C)C(=O)C(CC(C)C)N(C)C(=O)C(CC(C)C)N(C)C(=O)C(C)NC(=O)C(C)NC(=O)C(CC(C)C)N(C)C(=O)C(C(C)C)NC(=O)C(CC(C)C)N(C)C(=O)CN(C)C1=O` (centres unmarked) [Compound 61A-o] is 1000 to 100000 nM.

The same test, now with this note: given as a range; assay not given.
In the case of `CCC1NC(=O)C(C2OC(OCc3ccc(N4CCOCC4)cc3)CC2C)N(C)C(=O)C(C(C)C)N(C)C(=O)C(CC(C)C)N(C)C(=O)C(CC(C)C)N(C)C(=O)C(C)NC(=O)C(C)NC(=O)C(CC(C)C)N(C)C(=O)C(C(C)C)NC(=O)C(CC(C)C)N(C)C(=O)CN(C)C1=O` [99A + B(1:1.1), [2-((2R,3R)-3-methyl-5-(4-morpholinobenzyloxy)tetrahydrofuran-2-yl)-2-(methylamino)acetic acid]^1-cyclosporin A], the concentration for half-maximal inhibition (IC50) is 1 to 1000 nM.
The same measure, in the same setting: under `CCOc1cc(SC2CC(C)C(C3C(=O)NC(CC)C(=O)N(C)CC(=O)N(C)C(CC(C)C)C(=O)NC(C(C)C)C(=O)N(C)C(CC(C)C)C(=O)NC(C)C(=O)NC(C)C(=O)N(C)C(CC(C)C)C(=O)N(C)C(CC(C)C)C(=O)N(C)C(C(C)C)C(=O)N3C)O2)ccc1Cl` [Compound 41A, [2-((2R,3R)-5-(4-chloro-3-ethoxyphenylthio)-3-methyltetrahydrofuran-2-yl)-2-(methylamino)acetic acid]^1-cyclosporin A] stands 1 to 1000 nM; under `CCC1NC(=O)C(C2OC(Sc3ccc(Cl)c(OCc4ccccc4)c3)CC2C)N(C)C(=O)C(C(C)C)N(C)C(=O)C(CC(C)C)N(C)C(=O)C(CC(C)C)N(C)C(=O)C(C)NC(=O)C(C)NC(=O)C(CC(C)C)N(C)C(=O)C(C(C)C)NC(=O)C(CC(C)C)N(C)C(=O)CN(C)C1=O` [Compound 44A, [2-((2R,3R)-5-(3-(benzyloxy)-4-chlorophenylthio)-3-methyltetrahydrofuran-2-yl)-2-(methylamino)acetic acid]^1-cyclosporin A], 1 to 1000 nM.
`CCC1NC(=O)C(C2OC(Oc3cccc(OCc4ccccc4)c3)CC2C)N(C)C(=O)C(C(C)C)N(C)C(=O)C(CC(C)C)N(C)C(=O)C(CC(C)C)N(C)C(=O)C(C)NC(=O)C(C)NC(=O)C(CC(C)C)N(C)C(=O)C(C(C)C)NC(=O)C(CC(C)C)N(C)C(=O)CN(C)C1=O` (single isomer, unassigned) [Compound 12B-o] displayed a half-inhibitory concentration (IC50) of 1 to 1000 nM.
On to `CCC1NC(=O)C(C2OC(Sc3cccc(OCC4CCOCC4)c3)CC2C)N(C)C(=O)C(C(C)C)N(C)C(=O)C(CC(C)C)N(C)C(=O)C(CC(C)C)N(C)C(=O)C(C)NC(=O)C(C)NC(=O)C(CC(C)C)N(C)C(=O)C(C(C)C)NC(=O)C(CC(C)C)N(C)C(=O)CN(C)C1=O` [Compound 33A, [2-((2R,3R)-3-methyl-5-(3-((tetrahydro-2H-pyran-4-yl)methoxy)phenylthio)tetrahydrofuran-2-yl)-2-(methylamino)acetic acid]^1-cyclosporin A], for which the IC50 was in the range of 1 to 1000 nM.
`CCC1NC(=O)C(C2OC(Sc3ccc(OC)c(OC)c3)CC2C)N(C)C(=O)C(C(C)C)N(C)C(=O)C(CC(C)C)N(C)C(=O)C(CC(C)C)N(C)C(=O)C(C)NC(=O)C(C)NC(=O)C(CC(C)C)N(C)C(=O)C(C(C)C)NC(=O)C(CC(C)C)N(C)C(=O)CN(C)C1=O` [Compound 37A, [2-((2R,3R)-5-(3,4-dimethoxyphenylthio)-3-methyltetrahydrofuran-2-yl)-2-(methylamino)acetic acid]^1-cyclosporin A]: the half-maximal inhibitory concentration (IC50) is 1 to 1000 nM.
Take `CCC1NC(=O)C(C2OC(Sc3cccc(OCc4ccccc4)c3)CC2C)N(C)C(=O)C(C(C)C)N(C)C(=O)C(CC(C)C)N(C)C(=O)C(CC(C)C)N(C)C(=O)C(C)NC(=O)C(C)NC(=O)C(CC(C)C)N(C)C(=O)C(C(C)C)NC(=O)C(CC(C)C)N(C)C(=O)CN(C)C1=O` [Compound 12A, [2-((2R,3R)-5-(3-(benzyloxy)phenylthio)-3-methyltetrahydrofuran-2-yl)-2-(methylamino)acetic acid]^1-cyclosporin A]: the IC50 fell in the range of 1 to 1000 nM.
The same measure, in the same setting: the figure for `CCC1NC(=O)C(C2OC(Sc3ccc(SCCCS(=O)(=O)O)cc3)CC2C)N(C)C(=O)C(C(C)C)N(C)C(=O)C(CC(C)C)N(C)C(=O)C(CC(C)C)N(C)C(=O)C(C)NC(=O)C(C)NC(=O)C(CC(C)C)N(C)C(=O)C(C(C)C)NC(=O)C(CC(C)C)N(C)C(=O)CN(C)C1=O` [Compound 10A, [2-((2R,3R)-3-methyl-5-(4-(3-sulfopropylthio)phenylthio)tetrahydrofuran-2-yl)-2-(methylamino)acetic acid]^1-cyclosporin A] is 1000 to 1e+06 nM.

These data come from patent publication US10961231B2, “NTCP inhibitors” (National Institute of Biological Sciences, Beijing, priority 2018, dated 2021).
